One molecule from patent US20080020998A1, “Sustained release compositions for the therapeutic management of pain, inflammation and inflammation-associated disorders and prophylactic/ therapeutic methods thereof” (priority 2006, published 2008) can be followed below.

The test system of data set [1] is patients with osteoarthritis of the knee. Kind of data set: Double blind, randomized study in osteoarthritis of the knee: VAS assessment of pain, stiffness and swelling. It is filed as in vivo, human. As to conditions: twice-daily for 90 days, VAS scored 0 to 10, baseline vs end of 90 days. An excerpt: The institutional ethics committee approved the study protocol. Patients were recruited from the orthopaedic outpatient clinic of a tertiary care hospital. Consecutive outpatients of either sex, aged between 40-65 years in ARA functional class I, II or III and radiologically diagnosed to have osteoarthritis of the knee were identified. Clinically pain or discomfort should have been experienced in the affected knee on most days for the previous 3 months. Of these, patients already undergone knee arthroplasty, taken glucosamine in the previous 3 months or any intraarticular injection within previous month, having renal and/or hepatic disease, diabetes mellitus or a disabling co-morbidity were excluded.
After giving their written informed consent, patients were assessed at baseline for demographic and clinical characteristics. They were then randomized to receive either glucosamine sulphate or a combination of glucosamine sulphate, Boswellia serrata and curcuminoids twice-daily in a double blind manner for a total period of 90 days. Both the medications were identical in appearance and taste. Treatment of associated disease was allowed at the discretion of the physician. Patients were assessed at baseline and at the end of 90 days. […] VAS was scored from 0 to 10, where 0 indicates no pain/swelling/stiffness and 10 is the worst pain/swelling/stiffness imaginable.
The Western Ontario McMaster Universities Osteoarthritis Index (WOMAC) (8) was used to evaluate pain, stiffness and physical function of the knee. […] Adherence to trial medication was recorded. Adverse events, patient withdrawals and concomitant illnesses were recorded in accordance with good clinical practice guidelines.
The primary outcome measure was the change in VAS and WOMAC assessment of pain and stiffness in the affected knee. Response to treatment was analysed on an intention to treat basis, and the continuous variables were tested for significance by the standard error of difference in means. Categorical data were expressed as percentages with their 95% confidence intervals (CI). […]

The test system is the same in data set [2]. Nature of the data set: Double blind, randomized study in osteoarthritis of the knee: adherence and adverse events. It is filed as in vivo, human. As to conditions: 90-day trial, 50 patients randomized to two groups. The protocol:
After giving their written informed consent, patients were assessed at baseline for demographic and clinical characteristics. They were then randomized to receive either glucosamine sulphate or a combination of glucosamine sulphate, Boswellia serrata and curcuminoids twice-daily in a double blind manner for a total period of 90 days. Both the medications were identical in appearance and taste. Treatment of associated disease was allowed at the discretion of the physician. Patients were assessed at baseline and at the end of 90 days. Four separate 10 cm visual analogue scales (VAS) were used to measure pain in affected knee at rest, on movement and the patients overall assessment of swelling and morning stiffness. VAS was scored from 0 to 10, where 0 indicates no pain/swelling/stiffness and 10 is the worst pain/swelling/stiffness imaginable.
The Western Ontario McMaster Universities Osteoarthritis Index (WOMAC) (8) was used to evaluate pain, stiffness and physical function of the knee. The pain and stiffness subscales of the WOMAC have scores of 0-20 and 0-8 respectively, with 0 representing no pain or stiffness. […] Adherence to trial medication was recorded. Adverse events, patient withdrawals and concomitant illnesses were recorded in accordance with good clinical practice guidelines.

`N[C@H]1C(O)O[C@H](CO)[C@@H](O)[C@@H]1O.O=S(=O)(O)O` (some centres unmarked) [glucosamine sulphate]: in data set [1], the “Mean (95% CI) decrease in VAS score for morning stiffness” value was found to be 0.13, the “Mean (95% CI) decrease in VAS score for pain on use” value worked out at 0.27 and the “Mean (95% CI) decrease in VAS score for swelling” value is 0.45. Besides, in data set [2], the “Patients who reported headache” value is reported as 4 (16.0%) patients (%) and the “Patients who reported increase in pain” value is given as 3 (12.0%) patients (%).
